# Test results as given in patent US5026711A, “4-amino quinolines and naphthyridines and their use as medicines” (priority 1988, dated 1991).
# Assay: oral acute toxicity in the mouse (LD50)
# Type: in vivo
# Conditions: 500 mg/kg
# Experimental: The compounds of Examples 3, 67, 90, 107 and 114 are atoxic at the dose of 500 mg/kg in the mouse.
row,SMILES,atoxic at the dose of 500 mg/kg
1,CN(C(=O)CCNc1c(C(=O)c2ccccc2)cnc2cccnc12)c1ccc(Cl)cc1 [SR 26731],atoxic
2,COc1ccc(N(C)C(=O)CNc2c(C(=O)c3ccccc3)cnc3cc(Br)ccc23)cc1 [SR 27195],atoxic
3,CCCN(CCC)C(=O)C(C)Nc1c(C(=O)OCC)cnc2ccc(Cl)cc12 (stereo not drawn) [SR 26058],atoxic
4,CC(Nc1c(C(=O)c2ccccc2)cnc2cccnc12)C(=O)N(C)c1ccc(Cl)cc1 (stereo not drawn) [SR 26455],atoxic
5,CN(C(=O)CNc1c(C(=O)c2ccccc2)cnc2cccnc12)c1ccc(Cl)cc1Cl [SR 26972],atoxic

# Same assay, conditions: in vivo, oral route
row,SMILES,LD50
1,"CCCN(CCC)C(=O)C(C)Nc1c(C(=O)OCC)cnc2cc(C(F)(F)F)ccc12 (stereo not drawn) [SR 26241, ethyl 4-[1-(N,N-dipropylcarbamoyl)ethylamino] 7-trifluoromethyl quinoline 3-carboxylate]",1100 mg/kg
